The values below are quoted from earlier work in patent US20220000962A1, “PLANT-BASED BIOLOGICALLY ACTIVE SUBSTANCE HAVING A POLYPHARMACOLOGICAL EFFECT” (priority 2015, published 2022).

This data set has as its system CMV. The conditions noted are these: tricin obtained from Sasa albo-marginata.

For the compound `COc1cc(-c2cc(=O)c3c(O)cc(O)cc3o2)cc(OC)c1O` [tricin, 5,7,4-trihydroxy-3′,5′-dimethoxyflavone], the “concentration which inhibits development of CMV infection on the cellular level for 50%” value is 0.139 µg/mL. The IC50 (read-out: concentration which inhibits development of CMV infection on the cellular level for 50%) is 420 nM.
